The values that follow come from patent US6362394B1, “Juvenile hormone or one of its agonists as a chemical ligand to control gene expression in plants by receptor mediated transactivation” (Syngenta Participations AG, priority 1995, dated 2002).

Assay [1] concerns the target T1, receptor polypeptide VP16-USP (Drosophila melanogaster, UniProt P20153). The experiment in a line: VP16-USP activation of a direct repeat luciferase target cassette in transformed maize cells. Format: cell-based. More on the design: expressed in transfected cells. Particulars: 35S/VP16-USP, target (DR3)3-Bz1TATA/Luc, 10 μM ligand, 48 hours, no ligand 29,967. An excerpt:
Control of target polypeptide expression by various receptor polypeptides, including the chimeric receptor polypeptides of the present invention, can be shown by simultaneously transforming plant cells with the necessary gene constructions using high velocity microprojectile bombardment, followed by biochemical assay for the presence of the target polypeptide. The necessary gene constructions comprise a USP receptor expression cassette which encodes a USP receptor polypeptide (FIG. 1). Optionally, the USP receptor expression cassette may be transformed along with a secondary receptor expression cassette which encodes a receptor polypeptide distinct from USP (FIGS. 2 and 3). In addition, a target expression cassette which encodes a target polypeptide is also necessary. […]
Target polypeptide expression was detected by assaying the extract for the presence of the product encoded by the target expression cassette. […] The activity of firefly luciferase is determined by quantitating the chemiluminescence produced by luciferase catalyzed phosphorylation of luciferin using ATP as substrate (Promega Luciferase Kit, cat. no. E1500), using an Analytical Luminescence Model 2001 luminometer. […]

Assay [2] concerns the target T1, receptor polypeptide VP16-USP. The experiment in a line: Chemical induction of luciferase in isolated leaves of transgenic Arabidopsis expressing VP16-USP with a DR-Luciferase reporter. The format is cell-based. Set-up: expressed in transfected cells; host or cells: transgenic Arabidopsis thaliana (Columbia), isolated leaves; Agrobacterium T-DNA construct. The conditions noted are these: approximately 24 hours; for Fold increase in luciferase activity: 10 μM; for Luciferase Activity: 35S/VP16-USP, 10 μM ligand in 0.1% ethanol, light units per 10 seconds per 100 μg extract protein, control 638. On the procedure:
Arabidopsis thaliana (Columbia) was transformed with an Agrobacterium vector harboring a CaMV 35S promoter and a DR-Luciferase reporter (as described in Example 13 above) by the following vacuum-infiltration procedure. Electrocompetent GV3101 Agrobacterium cells were prepared by incubating GV3101 Agrobacterium in 2×YT media at 28° C. with aeration for 24-30 hours to an OD600 of 0.5-0.7 units. Cells were chilled on ice for 10-30 minutes, and centrifuged at 5,000 RPM for 5 minutes at 4° C. The supernatant was discarded, and the cell pellet resuspended in 1 volume of ice-cold 10% glycerol. Cells were again centrifuged at 5,000 RPM for 5 minutes at 4° C. The supernatant was discarded, and the cell pellet resuspended in 0.05 volumes of ice-cold 10% glycerol. Cells were again centrifuged at 5,000 RPM for 5 minutes at 4° C. The supernatant was discarded, and the cell pellet resuspended in 0.02 volume of ice-cold 10% glycerol. Cells were again centrifuged at 5,000 RPM for 5 minutes at 4° C. The supernatant was discarded, and the cell pellet resuspended 0.02 volume of ice-cold 10% glycerol. Cells were again centrifuged at 5,000 RPM for 5 minutes at 4° C. The supernatant was discarded, and the cell pellet resuspended in 0.01 volume of ice-cold 10% glycerol. Cells were aliquoted in […] amounts per 1.5 ml microfuge tubes, quick-frozen in liquid N2, and stored at −80° C. Electrocompetent cells were used before 6 weeks storage at −80° C. Frozen electrocompetent cells were thawed on ice and 40 ml transfered to a pre-chilled 1.5 ml microfuge tube. 1 ml of the appropriate Agrobacterium plasmid DNA (2-10 ng) was added to the thawed cells and mixed on ice. The cell/plasmid mixture was transfered to a prechilled 0.2 cm Bio-Rad electroporation cuvette, and electroporated at 2.0 KVolts, 600 Ohms, 25 μFarad, with a 6 msec time constant. 1 †ml of 2×YT media was added to the electroporation cuvette, the cell/plasmid solution was mixed with a pipet tip, and the contents transfered to a fresh 1.5 ml microfuge tube. Cells were then incubated at […] for 1 hour on a shaker at 200 RPM. The cells were centrifuged down for 2 minutes at a setting of 6 in an Eppendorph adjustable-speed microfuge, the supernatant decanted, and the cell pellet resuspended in the remaining liquid. Resuspended cells were spread on an LB media plate with the appropriate antibiotic. Plates were incubated at 28-30° C. for […]. A 50 ml LB culture was innoculated with a single transformed colony in a 250 ml flask with Rifampicin at 100 μg/ml and Gentomycin at 25 μg/ml and Kanamycin at 100 μg/ml. The culture was incubated for 24-36 hours at 28° C. at 250 RPM and 10 ml of the culture was used to innoculate 500 ml LB+antibiotics in a 2-liter flask. This culture was incubated overnight at 28° C. with shaking at 250 RPM. […]

In assay [3] the target is T2, receptor polypeptides GAL4-EcR^330-825-C1 and USP-VP16 (Drosophila melanogaster, UniProt P20153+P34021).
T2 construct: expressed in transfected cells; host or cells: maize suspension cells, microprojectile bombardment
The assay can be described thus: Tebufenozide-induced activation by GAL4-EcR-C1 + USP-VP16 of a luciferase target cassette in maize cells, and its block by methoprene. Format: cell-based. Particulars: approximately 48 hours. The source says: (§1) Control of target polypeptide expression by various receptor polypeptides, including the chimeric receptor polypeptides of the present invention, can be shown by simultaneously transforming plant cells with the necessary gene constructions using high velocity microprojectile bombardment, followed by biochemical assay for the presence of the target polypeptide. The necessary gene constructions comprise a USP receptor expression cassette which encodes a USP receptor polypeptide (FIG. 1). Optionally, the USP receptor expression cassette may be transformed along with a secondary receptor expression cassette which encodes a receptor polypeptide distinct from USP (FIGS. 2 and 3). In addition, a target expression cassette which encodes a target polypeptide is also necessary.
(§2) The expression cassettes were simultaneously delivered to maize suspension cells cultured in liquid N6 medium (Chu et al. Scientia Sinica XVIII:659-668, 1975) by high velocity microprojectile bombardment using standard techniques of DNA precipation onto microprojectiles and high velocity bombardment driven by compressed helium (PDS1000/He, BioRad, Hercules, Calif.). Transfected cells were incubated in liquid suspension in the presence of the appropriate chemical ligand for approximately 48 hours in N6 media. After incubation, the transformed cells were harvested then homogenized at 0° C. Debris in the extracts was removed by centrifugation at 10,000 g at 4° C. for 5 minutes.
(§3) Target polypeptide expression was detected by assaying the extract for the presence of the product encoded by the target expression cassette. One commonly used coding sequence for the target polypeptide when testing control of expression by the receptor polypeptides in the presence of a chemical ligand is firefly luciferase. The activity of firefly luciferase is determined by quantitating the chemiluminescence produced by luciferase catalyzed phosphorylation of luciferin using ATP as substrate (Promega Luciferase Kit, cat. no. E1500), using an Analytical Luminescence Model 2001 luminometer. […]

Assay [4] concerns the target T3, receptor polypeptides GAL4-EcR^330-825-C1 and USP-VP16 (Drosophila melanogaster, UniProt P20153).
T3 construct: expressed in transfected cells; host or cells: maize suspension cells, microprojectile bombardment
The experiment in a line: Reversal by juvenile hormone agonists of GAL4-EcR-C1 + USP-VP16 activation of a luciferase target cassette in transformed maize cells. The format is cell-based. The conditions noted are these: 10 μM ligand, approximately 48 hours.
Excerpt: as §1, §2, §3

In assay [5] the target is T4, RXRα (Homo sapiens, UniProt P19793).
T4 construct: host or cells: insect and mammalian cells (as reported by Harmon et al.)
T4 sequence (P19793 1-462): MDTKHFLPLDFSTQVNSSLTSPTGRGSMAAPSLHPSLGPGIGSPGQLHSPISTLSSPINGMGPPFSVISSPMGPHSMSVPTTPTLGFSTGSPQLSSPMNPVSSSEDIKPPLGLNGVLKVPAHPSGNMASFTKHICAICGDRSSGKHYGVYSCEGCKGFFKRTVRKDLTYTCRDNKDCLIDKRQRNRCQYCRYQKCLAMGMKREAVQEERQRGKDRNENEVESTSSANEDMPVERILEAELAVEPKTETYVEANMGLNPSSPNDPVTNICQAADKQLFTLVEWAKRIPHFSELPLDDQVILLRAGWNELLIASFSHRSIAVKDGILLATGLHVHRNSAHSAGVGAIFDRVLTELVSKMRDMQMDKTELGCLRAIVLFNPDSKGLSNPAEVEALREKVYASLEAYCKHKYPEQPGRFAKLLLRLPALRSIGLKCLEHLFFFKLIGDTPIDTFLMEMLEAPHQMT
Particulars: insect and mammalian cells; cited from earlier work.

Assay [6] concerns the target T5, USP (Drosophila melanogaster, UniProt P20153).
T5 construct: host or cells: Drosophila cell culture (as reported by Oro et al. and Harmon et al.)
T5 sequence (P20153 1-508): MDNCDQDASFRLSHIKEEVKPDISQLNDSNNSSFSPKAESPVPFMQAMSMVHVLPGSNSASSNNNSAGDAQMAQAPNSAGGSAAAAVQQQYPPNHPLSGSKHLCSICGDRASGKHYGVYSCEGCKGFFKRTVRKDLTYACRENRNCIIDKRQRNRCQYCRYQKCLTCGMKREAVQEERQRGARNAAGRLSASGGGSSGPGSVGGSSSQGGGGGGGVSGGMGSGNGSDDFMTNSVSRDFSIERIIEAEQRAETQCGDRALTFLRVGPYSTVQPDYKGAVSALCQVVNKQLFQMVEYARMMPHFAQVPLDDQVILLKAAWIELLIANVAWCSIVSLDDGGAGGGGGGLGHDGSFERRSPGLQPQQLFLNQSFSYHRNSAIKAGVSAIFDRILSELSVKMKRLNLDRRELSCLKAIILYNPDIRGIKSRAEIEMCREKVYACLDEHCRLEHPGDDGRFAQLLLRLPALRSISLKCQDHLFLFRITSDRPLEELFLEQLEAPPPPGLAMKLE
The conditions noted are these: Drosophila cell-culture assays; conditions in which RXR is responsive; cited from earlier work.

The target of assay [7] is USP-VP16 chimeric receptor polypeptide (Drosophila; herpes simplex virus) (UniProt P20153). The experiment in a line: cell-based or functional assay.
Setting [8] is: Experiment #1, 35S/GAL4-EcR^330-825-C1 + 35S/USP-VP16, target (GAL4b.s.)10-Bz1TATA/Luc, no ligand 277,862.

T1 sequence (P06492 413-490, one chain of several): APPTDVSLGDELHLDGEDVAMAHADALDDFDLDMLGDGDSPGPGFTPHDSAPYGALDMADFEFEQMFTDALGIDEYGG
T3 sequence (P06492 411-490, one chain of several): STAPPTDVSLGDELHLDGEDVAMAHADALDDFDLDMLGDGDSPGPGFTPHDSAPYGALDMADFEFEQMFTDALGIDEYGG

Turning to `COC(C)(C)CCC[C@H](C)C/C=C/C(C)=C/C(=O)OC(C)C` (racemic) [Methoprene], the “Luciferase Activity” value in assay [1] is listed as 485,458 light units; in assay [2] it was 15,790 light units; in assay [4] (setting [8]) it was 14,786 light units; in assay [4] (Experiment #2, 35S/GAL4-EcR^330-825-C1 + 35S/USP-VP16, target (GAL4b.s.)10-Bz1TATA/Luc, no ligand 178,092), 5,730 light units. Besides, the “Fold increase in luciferase activity” value in assay [2] is recorded as 25 fold. In addition, in assay [3] (10 μM methoprene with 10 μM tebufenozide), the “Effect on tebufenozide-induced activation of luciferase gene expression” value is on record as “completely blocked”. In addition, in assay [5], the “RXRα-mediated transcriptional activation of a recombinant reporter gene” value (shortened to “RXRα-mediated transcriptional activation”) is “transcriptionally activate”.
With `CCOC(=O)NCCOc1ccc(Oc2ccccc2)cc1` [Fenoxycarb, ethyl [2-(4-phenoxyphenoxy)ethyl]carbamate], in assay [2], the “Fold increase in luciferase activity” value was determined as 6.2 fold and the “Luciferase Activity” value is 3,991 light units. Also, in assay [4] (setting [8]), the “Luciferase Activity” value is listed as 77,418 light units.
Turning to `CCc1ccc(C(=O)NN(C(=O)c2cc(C)cc(C)c2)C(C)(C)C)cc1` [Tebufenozide], the “Tebufenozide-induced activation of luciferase gene expression, fold increase when used alone” value in assay [3] (10 μM) is “approximately 6 fold”. Moreover, in assay [3] (35S/GAL4-EcR^330-825-C1 + 35S/USP-VP16, target (GAL4b.s.)10-Bz1TATA/Luc, 10 μM each ligand, no ligand 178,092), the “Luciferase Activity” value is on record as 908,912 light units.
With `COC(C)(C)CCCC(C)C/C=C/C(C)=C/C(=O)O` (centres unmarked) [methoprene acid], the “Activation / response of USP” value in assay [6] is recorded as “does not respond”. The “RXRα-mediated transcriptional activation” value in assay [5] is “transcriptionally activate”.
In assay [7], “GAL4-EcR^330-825-C1 chimeric receptor polypeptide (from UniProt P04386 1-147; P34021 330-825; P10290 219-273)” returned a Luciferase Activity (light units) of the (GAL4b.s.)10-Bz1TATA/Luc reporter in maize cells, Experiment #1, no chemical ligand of 278000 light units; a Luciferase Activity (light units) of the (GAL4b.s.)10-Bz1TATA/Luc reporter in maize cells, Experiment #1, with 10 uM Fenoxycarb of 77400 light units; a Luciferase Activity (light units) of the (GAL4b.s.)10-Bz1TATA/Luc reporter in maize cells, Experiment #1, with 10 uM Methoprene of 14800 light units; a Luciferase Activity (light units) of the (GAL4b.s.)10-Bz1TATA/Luc reporter in maize cells, Experiment #2, no chemical ligand of 178000 light units. For the same compound, in assay [7], the Luciferase Activity (light units) of the (GAL4b.s.)10-Bz1TATA/Luc reporter in maize cells, Experiment #2, with 10 uM Methoprene turned out to be 5730 light units; the Luciferase Activity (light units) of the (GAL4b.s.)10-Bz1TATA/Luc reporter in maize cells, with 10 uM Tebufenozide was 909000 light units; the Luciferase Activity (light units) of the (GAL4b.s.)10-Bz1TATA/Luc reporter in maize cells, with 10 uM Tebufenozide + 10 uM Methoprene amounted to 160000 light units; the level of tebufenozide-induced activation of luciferase gene expression (fold increase, tebufenozide alone) is 6 fold.
For Juvenile hormone, the “RXRα-mediated transcriptional activation” value in assay [5] is given as “does not induce”.
